Assay type in all cases: cell-based
The target of assay [1] is T1, RARα (Homo sapiens, UniProt P10276).
T1 sequence (P10276 1-462): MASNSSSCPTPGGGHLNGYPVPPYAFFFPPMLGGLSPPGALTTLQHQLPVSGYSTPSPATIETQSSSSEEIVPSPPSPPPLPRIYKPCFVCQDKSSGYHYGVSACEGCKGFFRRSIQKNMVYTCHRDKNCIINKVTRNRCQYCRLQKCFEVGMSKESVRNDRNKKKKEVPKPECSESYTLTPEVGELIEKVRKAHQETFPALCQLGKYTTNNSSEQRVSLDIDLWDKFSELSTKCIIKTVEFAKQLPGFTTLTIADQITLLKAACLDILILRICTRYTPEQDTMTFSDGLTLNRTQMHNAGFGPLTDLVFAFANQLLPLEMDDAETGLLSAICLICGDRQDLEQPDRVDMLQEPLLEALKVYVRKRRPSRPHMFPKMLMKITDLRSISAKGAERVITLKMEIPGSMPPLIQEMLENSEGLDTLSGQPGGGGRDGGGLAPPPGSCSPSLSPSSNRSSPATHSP
In words: RARα transcriptional assay, agonist activity. The following applies: agonist mode. As to the method:
(§1) Transcriptional assays for RARα, RARβ and RARγ, which measure the antagonist or agonist like activity of the compounds are described in WO 2017/201200 A1 (Thacher, Crowe, Tao and Raheja, Therapeutic compositions containing RAR-alpha antagonists) published on Nov. 23, 2017, which is also incorporated herein by reference. The results obtained in these assays are expressed as EC50 values when measuring agonist activity and IC50 values when measuring antagonist activity in the presence of 0.5 nM TTNPB, a retinoid agonist.

Assay [2] concerns the target T2, RARβ (Homo sapiens, UniProt P10826).
T2 sequence (P10826 1-455): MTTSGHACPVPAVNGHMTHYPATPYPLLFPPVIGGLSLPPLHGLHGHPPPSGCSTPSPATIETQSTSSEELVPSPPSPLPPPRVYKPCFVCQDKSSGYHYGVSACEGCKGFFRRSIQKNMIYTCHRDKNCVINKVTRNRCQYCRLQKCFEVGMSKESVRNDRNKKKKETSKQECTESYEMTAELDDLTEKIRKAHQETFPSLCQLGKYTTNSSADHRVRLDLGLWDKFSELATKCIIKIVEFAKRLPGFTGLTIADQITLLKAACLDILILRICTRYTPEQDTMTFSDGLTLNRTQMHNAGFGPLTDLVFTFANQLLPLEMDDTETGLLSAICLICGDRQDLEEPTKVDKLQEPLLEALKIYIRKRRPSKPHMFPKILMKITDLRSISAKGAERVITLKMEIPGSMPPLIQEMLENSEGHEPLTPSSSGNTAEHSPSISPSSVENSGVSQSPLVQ
In words: RARβ transcriptional assay, agonist activity. The note with it: agonist mode. As to the method: as §1

Assay [3] has as its target T3, RARγ (Homo sapiens, UniProt P13631).
T3 sequence (P13631 1-454): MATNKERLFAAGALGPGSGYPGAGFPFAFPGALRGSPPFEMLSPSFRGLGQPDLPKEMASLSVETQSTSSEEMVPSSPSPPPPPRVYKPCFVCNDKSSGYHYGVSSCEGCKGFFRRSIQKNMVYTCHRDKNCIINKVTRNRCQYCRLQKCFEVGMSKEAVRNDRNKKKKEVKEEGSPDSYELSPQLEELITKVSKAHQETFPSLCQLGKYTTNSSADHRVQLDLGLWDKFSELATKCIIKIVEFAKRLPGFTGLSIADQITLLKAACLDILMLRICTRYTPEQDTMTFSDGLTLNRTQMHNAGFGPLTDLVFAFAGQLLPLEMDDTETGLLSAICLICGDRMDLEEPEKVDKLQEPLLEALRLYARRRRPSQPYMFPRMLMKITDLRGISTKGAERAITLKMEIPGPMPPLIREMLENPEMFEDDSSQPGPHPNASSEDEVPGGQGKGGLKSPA
Briefly: RARγ transcriptional assay, agonist activity. The note with it: agonist mode. Here is the method:
as §1

The target in assay [4] is T1, RARα. In words: RARα transcriptional assay, antagonist activity. The following applies: in the presence of 0.5 nM TTNPB. Here is the method: as §1
The target of assay [5] is T2, RARβ. Briefly: RARβ transcriptional assay, antagonist activity. The note with it: in the presence of 0.5 nM TTNPB. As to the method: as §1
Assay [6] has as its target T3, RARγ. In words: RARγ transcriptional assay, antagonist activity. The following applies: in the presence of 0.5 nM TTNPB. As to the method: as §1

Consider 9 compounds from US12492177B2, “RAR-α compounds for inflammatory disease and male contraception” (Orphagen Pharmaceuticals, Inc., priority 2019, dated 2025).

The term EC50 denotes the concentration giving half of the maximal effect. A low value points to an effect from little substance. As a reminder, the IC50 is the concentration that gives 50% inhibition.

For the compound `CC[C@H]1CC[C@@H](C2=CC(C)(C)Oc3c(Br)cc(C(=O)Nc4ccc(C(=O)O)c(F)c4)cc32)CC1` [Compound 40], the EC50 at RARα [1], on RARβ [2] and at RARγ [3] was above 1 µM throughout. Further, the “Antagonist Activity RARα Efficacy” value at RARα [4] was “† (†, RARα antagonist efficacy >85%)”. The IC50 at RARα [4] was below 0.001 µM; on RARβ [5], above 1 µM; at RARγ [6], above 1 µM.
`CC1(C)CCC(C2=CC(C)(C)Oc3c(Br)cc(C(=O)Nc4ccc(C(=O)O)c(F)c4)cc32)CC1` [Compound 38]: the EC50 at RARα [1], on RARβ [2] and at RARγ [3] was above 1 µM in each case. Also, the “Antagonist Activity RARα Efficacy” value at RARα [4] is “† (†, RARα antagonist efficacy >85%)”. Further, the IC50 is below 0.001 µM on RARα [4], 0.011 to 0.1 µM at RARβ [5] and 0.011 to 0.1 µM on RARγ [6].
Take `CC[C@H]1CC[C@H](C2=CC(C)(C)Oc3c(Br)cc(C(=O)Nc4ccc(C(=O)O)c(F)c4)cc32)CC1` [Compound 39]: the EC50 on RARα [1], on RARβ [2] and on RARγ [3] was above 1 µM each time. At RARα [4], the “Antagonist Activity RARα Efficacy” value is “† (†, RARα antagonist efficacy >85%)”. The IC50 was below 0.001 µM at RARα [4], 0.101 to 1 µM on RARβ [5] and 0.101 to 1 µM at RARγ [6].
As for `CC1(C)C=C(C2CCOCC2)c2cc(C(=O)Nc3ccc(C(=O)O)c(F)c3)cc(Br)c2O1` [Compound 34], the EC50 at RARα [1], at RARβ [2] and on RARγ [3] was 0.101 to 1 µM throughout. Further, on RARα [4], the “Antagonist Activity RARα Efficacy” value was “† (†, RARα antagonist efficacy >85%)”. Further, the IC50 was 0.011 to 0.1 µM at RARα [4], above 1 µM at RARβ [5] and above 1 µM at RARγ [6].
As for `CC1(C)C=C([C@H]2CC[C@@H](C)CC2)c2cc(C(=O)Nc3ccc(C(=O)O)c(F)c3)cc(Br)c2O1` [Compound 36], the EC50 at RARα [1], at RARβ [2] and at RARγ [3] was above 1 µM in each case. For the same compound, at RARα [4], the “Antagonist Activity RARα Efficacy” value is listed as “† (†, RARα antagonist efficacy >85%)”. Moreover, the values for the IC50 on RARα [4], on RARβ [5] and at RARγ [6] were below 0.001 µM, above 1 µM and above 1 µM, respectively.
In the case of `CN1CCC(C2=CC(C)(C)Oc3c(Br)cc(C(=O)Nc4ccc(C(=O)O)c(F)c4)cc32)CC1` [Compound 32], the EC50 on RARα [1], on RARβ [2] and at RARγ [3] was above 1 µM in each case. The IC50 at RARα [4], at RARβ [5] and on RARγ [6] was above 1 µM throughout.
In the case of `CC(C)C1=CC(C)(C)Oc2c(Br)cc(C(=O)Nc3ccc(C(=O)O)c(F)c3)cc21` [Compound 33], the EC50 at RARα [1] was below 0.001 µM; on RARβ [2], 0.011 to 0.1 µM; on RARγ [3], 0.101 to 1 µM. Further, the IC50 on RARα [4], at RARβ [5] and at RARγ [6] was above 1 µM in each case.
As to `CC#CC1=CC(C)(C)Oc2c(Br)cc(C(=O)Nc3ccc(C(=O)O)c(F)c3)cc21` [Compound 37], the EC50 is 0.011 to 0.1 µM on RARα [1], 0.101 to 1 µM at RARβ [2] and above 1 µM on RARγ [3]. Further, the IC50 was 0.001 to 0.01 µM at RARα [4], above 1 µM on RARβ [5] and above 1 µM at RARγ [6].
Turning to `CC1CCC(C2=CC(C)(C)Oc3c(Br)cc(C(=O)Nc4ccc(C(=O)O)c(F)c4)cc32)CC1` (stereo not drawn) [Compound 35], the EC50 at RARα [1], at RARβ [2] and on RARγ [3] was above 1 µM in each case. For the same compound, the “Antagonist Activity RARα Efficacy” value at RARα [4] is reported as “† (†, RARα antagonist efficacy >85%)”. Also, the IC50 at RARα [4] is below 0.001 µM; on RARβ [5], 0.011 to 0.1 µM; at RARγ [6] it was above 1 µM.
